Data from the supplement of paper PMC13380429.
± gives the standard deviation of the averaged measurements.

What was measured:
Settings in all cases: 72 h
Caco-2 [1] = assay: relative viability EC50 (midpoint between 100% and the lowest measured viability); higher = less toxic
Vero E6 [2] = assay: as above
U2OS [3] = assay: as above
HepG2 [4] = assay: as above
Calu-3 [5] = assay: as above
Caco-2 [6] = assay: drug sensitivity score (DSS) for viability; higher = more toxic; extreme values may be limits of the assay
Vero E6 [7] = assay: as above
U2OS [8] = assay: as above
HepG2 [9] = assay: as above
Calu-3 [10] = assay: as above
Caco-2 [11] = assay: cell viability relative to DMSO; higher = less toxic
Vero E6 [12] = assay: as above
U2OS [13] = assay: as above
HepG2 [14] = assay: as above
Calu-3 [15] = assay: as above

Row | SMILES | relative viability EC50 (Caco-2 [1]) [µM] | relative viability EC50 (Vero E6 [2]) [µM] | relative viability EC50 (U2OS [3]) [µM] | relative viability EC50 (HepG2 [4]) [µM] | relative viability EC50 (Calu-3 [5]) [µM] | drug sensitivity score (Caco-2 [6]) | drug sensitivity score (Vero E6 [7]) | drug sensitivity score (U2OS [8]) | drug sensitivity score (HepG2 [9]) | drug sensitivity score (Calu-3 [10]) | cell viability (Caco-2 [11]; 1 nM) [%] | cell viability (Caco-2 [11]; 10 nM) [%] | cell viability (Caco-2 [11]; 100 nM) [%] | cell viability (Caco-2 [11]; 1000 nM) [%] | cell viability (Caco-2 [11]; 10000 nM) [%] | cell viability (Vero E6 [12]; 1 nM) [%] | cell viability (Vero E6 [12]; 10 nM) [%] | cell viability (Vero E6 [12]; 100 nM) [%] | cell viability (Vero E6 [12]; 1000 nM) [%] | cell viability (Vero E6 [12]; 10000 nM) [%] | cell viability (U2OS [13]; 1 nM) [%] | cell viability (U2OS [13]; 10 nM) [%] | cell viability (U2OS [13]; 100 nM) [%] | cell viability (U2OS [13]; 1000 nM) [%] | cell viability (U2OS [13]; 10000 nM) [%] | cell viability (HepG2 [14]; 1 nM) [%] | cell viability (HepG2 [14]; 10 nM) [%] | cell viability (HepG2 [14]; 100 nM) [%] | cell viability (HepG2 [14]; 1000 nM) [%] | cell viability (HepG2 [14]; 10000 nM) [%] | cell viability (Calu-3 [15]; 1 nM) [%] | cell viability (Calu-3 [15]; 10 nM) [%] | cell viability (Calu-3 [15]; 100 nM) [%] | cell viability (Calu-3 [15]; 1000 nM) [%] | cell viability (Calu-3 [15]; 10000 nM) [%]
1 | CC(C)NCC(O)c1cc(O)cc(O)c1 (stereo not given) [metaproterenol] | > 10 | > 10 | > 10 | > 10 | > 10 | 0 | 0 | 0 | 0 | 0 | 93.4 | 90.8 | 104 | 106 | 95.1 | 94.4 | 95.6 | 92.7 | 94.7 | 113 | 98.3 | 96.8 | 98.9 | 98.7 | 102 | 98.6 | 110 | 108 | 108 | 108 | 101 | 97.2 | 106 | 108 | 98
2 | C[C@](N)(Cc1ccc(O)c(O)c1)C(=O)O [methyldopa] | > 10 | > 10 | > 10 | > 10 | > 10 | 0 | 0 | 0 | 0 | 0 | 97.5 | 103 | 89.8 | 106 | 99.9 | 99.2 | 102 | 94.5 | 97.9 | 106 | 101 | 103 | 96.7 | 97.8 | 93.1 | 94.1 | 97.4 | 104 | 92.3 | 108 | 96.9 | 102 | 101 | 98.9 | 93.6
3 | CC1(C)S[C@@H]2[C@H](NC(=O)[C@H](NC(=O)N3CCN(S(C)(=O)=O)C3=O)c3ccccc3)C(=O)N2[C@H]1C(=O)O [mezlocillin] | > 10 | > 10 | > 10 | > 10 | > 10 | 1.1 | 0 | 0 | 0 | 0 | 100 | 102 | 87.8 | 89.4 | 96.3 | 99.6 | 107 | 99.5 | 100 | 100 | 96.4 | 97.9 | 92.7 | 103 | 94.8 | 99.6 | 94.2 | 91.1 | 98.6 | 104 | 93.8 | 88.9 | 93.1 | 100 | 94.1
4 | O=c1c(O)c(-c2ccc(O)cc2O)oc2cc(O)cc(O)c12 [morin] | > 10 | > 10 | > 10 | > 10 | > 10 | 0 | 0 | 0 | 0 | 0 | 102 | 96.5 | 96.6 | 102 | 88.6 | 94.9 | 95.8 | 99 | 98.4 | 95.9 | 101 | 93.7 | 104 | 97.3 | 102 | 87.2 | 103 | 98.9 | 97.4 | 98.9 | 113 | 99.5 | 96.3 | 91.6 | 102
5 | C[C@H]1O[C@@H](Oc2c(-c3cc(O)c(O)c(O)c3)oc3cc(O)cc(O)c3c2=O)[C@@H](O)[C@@H](O)[C@@H]1O [myricitrin] | > 10 | > 10 | > 10 | > 10 | > 10 | 0 | 0 | 0 | 0 | 0 | 100 | 105 | 100 | 105 | 96 | 99.5 | 98.5 | 97.7 | 96.1 | 93.8 | 97.9 | 97.4 | 94.7 | 99.1 | 94.7 | 104 | 98.3 | 109 | 86.6 | 99.6 | 92.5 | 99.2 | 96.7 | 101 | 94.4
6 | C=CCN1CC[C@]23c4c5ccc(O)c4O[C@H]2/C(=N/NC(=O)c2ccccc2)CC[C@@]3(O)[C@H]1C5 [naloxone-benzoylhydrazone] | > 10 | > 10 | > 10 | > 10 | > 10 | 0 | 0 | 0 | 0 | 0 | 91.7 | 93.8 | 101 | 94.7 | 112 | 97.9 | 102 | 102 | 97.2 | 107 | 100 | 101 | 97.4 | 103 | 105 | 101 | 99.5 | 102 | 96.4 | 101 | 95.4 | 95.8 | 89.4 | 103 | 112
7 | NCC1CC(=O)N(Cc2ccccc2)C1 (stereo not given) [nebracetam] | > 10 | > 10 | > 10 | > 10 | > 10 | 0 | 0 | 0 | 0 | 0 | 87 | 91.8 | 84.4 | 97.8 | 99.7 | 94.5 | 93.6 | 97.8 | 91.4 | 108 | 97.4 | 104 | 95.7 | 100 | 104 | 109 | 108 | 92.8 | 96.6 | 98.5 | 99.7 | 96.3 | 93.1 | 94.4 | 107
8 | CNC(=O)c1c(-c2ccc(F)cc2)oc2cc(N(CCO)S(C)(=O)=O)c(C3CC3)cc12 [nesbuvir] | > 10 | > 10 | > 10 | > 10 | > 10 | 0 | 0 | 0 | 0 | 0 | 94 | 101 | 95 | 99 | 101 | 98.4 | 97 | 98.6 | 93.6 | 103 | 93.3 | 102 | 96.4 | 99.9 | 102 | 97.3 | 90 | 103 | 92.2 | 107 | 108 | 107 | 99.9 | 110 | 103
9 | Cc1ccccc1-c1cc(N2CCN(C)CC2)ncc1N(C)C(=O)C(C)(C)c1cc(C(F)(F)F)cc(C(F)(F)F)c1 [netupitant] | > 10 | > 10 | > 10 | > 10 | > 10 | 0 | 0 | 0 | 0 | 0 | 93.2 | 92.6 | 91.5 | 96 | 95.2 | 106 | 108 | 103 | 104 | 97.5 | 102 | 99 | 101 | 99.4 | 96.5 | 95 | 98.2 | 104 | 97.9 | 95.6 | 94.8 | 101 | 105 | 112 | 102
10 | CO[C@H]1C[C@H](O[C@H]2CC[C@@]3(C)[C@H](CC[C@@H]4[C@@H]3CC[C@]3(C)[C@@H](C5=CC(=O)OC5)[C@@H](OC(C)=O)C[C@]43O)C2)O[C@@H](C)[C@@H]1O [oleandrin] | 0.0155 | 0.0214 | 0.0334 | 0.0769 | 0.0355 | 28.6 | 32.3 | 28.1 | 24.1 | 24.5 | 98.1 | 79.5 | 17.8 | 19.5 | 20.9 | 101 | 87.5 | 1.1 | 1.1 | 1.3 | 104 | 98.4 | 10.8 | 7.3 | 9.5 | 102 | 107 | 38.1 | 7.4 | 6.4 | 102 | 89.3 | 31.6 | 18.4 | 17.4
11 | Fc1ccc([C@@H]2CCNC[C@H]2COc2ccc3c(c2)OCO3)cc1 [paroxetine] | > 10 | > 10 | > 10 | > 10 | > 10 | 0.6 | 0 | 0 | 0 | 0 | 85.8 | 102 | 111 | 98.6 | 82.1 | 95.9 | 104 | 98.7 | 101 | 100 | 97.7 | 96.4 | 103 | 98 | 101 | 117 | 120 | 108 | 83.7 | 102 | 95.9 | 87.4 | 93.1 | 85.1 | 108
12 | C[C@H]1COc2c(C3(N)CC3)c(F)cc3c(=O)c(C(=O)O)cn1c23 [pazufloxacin] | > 10 | > 10 | > 10 | > 10 | > 10 | 0 | 0 | 0 | 0 | 0 | 103 | 93.5 | 90.3 | 99.2 | 102 | 93.7 | 103 | 103 | 94.6 | 99.2 | 103 | 103 | 100 | 99.9 | 97.3 | 88.8 | 107 | 101 | 98.9 | 99.4 | 96.9 | 98.7 | 90.6 | 101 | 89.3
13 | CC(C)NCC(O)COc1cccc2[nH]ccc12 (stereo not given) [pindolol] | > 10 | > 10 | > 10 | > 10 | > 10 | 0 | 0 | 0 | 0 | 0 | 117 | 100 | 122 | 101 | 90.9 | 99.2 ± 1.3 | 95.8 ± 1.4 | 96.1 ± 9.6 | 98.8 ± 2.1 | 95 ± 11 | 103 ± 5 | 101 ± 2.3 | 99.5 ± 3.3 | 102.5 ± 0.35 | 103 ± 0.14 | 111 ± 10 | 90 ± 12 | 105 ± 0.14 | 85.5 ± 29 | 103 ± 8.6 | 98.8 ± 1.1 | 97 ± 6.8 | 100.4 ± 0.28 | 103.8 ± 0.92 | 102 ± 15
14 | CN1CCN(CC(=O)N2c3ccccc3C(=O)Nc3cccnc32)CC1 [pirenzepine] | > 10 | > 10 | > 10 | > 10 | > 10 | 0 | 0 | 0 | 0 | 0 | 85.5 | 103 | 99.9 | 93.9 | 95 | 103 | 101 | 98.4 | 103 | 102 | 96.1 | 93.8 | 99.6 | 98.7 | 101 | 113 | 99.9 | 88.9 | 103 | 97.7 | 97.5 | 87.3 | 104 | 96.3 | 103
